# From US8283322B2, “Formulations for nonsurgical exogenous crosslink therapy” (Orthopeutics, LP, priority 2008, dated 2012)
# “Also recorded” adds a separate entry of the source.
# B1: transglutaminase (protein, UniProt P21980 2-687, looked up)
# Protein-glutamine …: AEELVLERCDLELETNGRDHHTADLCREKLVVRRGQPFWLTLHFEGRNYEASVDSLTFSVVTGPAPSQEAGTKARFPLRDAVEEGDWTATVVDQQDCTLSLQLTTPANAPIGLYRLSLEASTGYQGSSFVLGHFILLFNAWCPADAVYLDSEEERQEYVLTQQGFIYQGSAKFIKNIPWNFGQFEDGILDICLILLDVNPKFLKNAGRDCSRRSSPVYVGRVVSGMVNCNDDQGVLLGRWDNNYGDGVSPMSWIGSVDILRRWKNHGCQRVKYGQCWVFAAVACTVLRCLGIPTRVVTNYNSAHDQNSNLLIEYFRNEFGEIQGDKSEMIWNFHCWVESWMTRPDLQPGYEGWQALDPTPQEKSEGTYCCGPVPVRAIKEGDLSTKYDAPFVFAEVNADVVDWIQQDDGSVHKSINRSLIVGLKISTKSVGRDEREDITHTYKYPEGSSEEREAFTRANHLNKLAEKEETGMAMRIRVGQSMNMGSDFDVFAHITNNTAEEYVCRLLLCARTVSYNGILGPECGTKYLLNLNLEPFSEKSVPLCILYEKYRDCLTESNLIKVRALLVEPVINSYLLAERDLYLENPEIKIRILGEPKQKRKLVAEVSLQNPLPVALEGCTFTVEGAGLTEEQKTVEIPDPVEAGEEVKVRMDLLPLHMGLHKLVVNFESDKLKAVKGFRNVIIGPA
# What was measured:
# [1] = at 20° C.; cited from earlier work
# [2] = tested on: homogenized annulus tissue; experiment: Crosslinking of annulus tissue quantified by hydroxyproline release upon collagenase digestion; conditions: for concentration at which crosslinking was complete / a plateau was reached: FIG. 1, 1 hr (MG), 6 hrs (DT and LT); for effect of buffer (EPPS vs Tris) on crosslinking: 100 mM EPPS or 100 mM Tris, GP at pH 9; for effect of phosphate on crosslinking: Tris buffer pH 8, increasing concentrations of sodium phosphate; for pH: optimized pH for crosslinking; for pH dependence of crosslinking: sub-saturating crosslinker, pH 4-9 with a different buffer at each pH (FIG. 2, FIG. 3)
# Method: (§1) Increasing concentrations of protein crosslinkers were added to homogenized annulus tissue and incubated for either 1 hr (EDC, GP, MG, PA and GA), 2 hrs (TG) or 6 hrs (DT and LT). Crosslinking was quantified by determining the amount of hydroxyproline (HYP) released from the tissue by collagenase digestion.
# (§2) Homogenized annulus tissue was treated with sub-saturating concentrations of various crosslinkers at varying pH and incubated for either 1 hr (EDC, GP, MG, PA and GA), 2 hrs (TG) or 6 hrs (LT). Crosslinking was quantified by determining the amount of hydroxyproline (HYP) released from the tissue by collagenase digestion.
# (§3) In order to determine the effective concentration range for various crosslinking reagents we incubated samples of annulus tissue in increasing concentrations of either genipin (GP), methylglyoxal (MG), proanthrocyanidin (PA), L-threose (LT), D-threose (DT), dimethylaminopropyl) carbodiimide hydrochloride (EDC) or transglutaminase (TG). Crosslinking efficiency was measured indirectly by monitoring the release of peptides containing hydroxyproline upon subsequent digestion with collagenase. Glutaraldehyde (GA), a commonly used, but highly toxic protein crosslinker was used as a positive control.
# (§4) To test this hypothesis, the inventors subjected calf annulus fibrosus tissue to crosslinking with sub-saturating levels of our reagents at varying pH. In order to maintain optimal buffering capacity at each pH, different buffers were selected for each point.
# [3] = tested on: homogenized annulus tissue; conditions: bovine
# Method: as §1, §2, §3, §4
# [4] = in water; proposed values; cited from earlier work
# [5] = saturating crosslinker concentration, Table 5
# [6] = sub-saturating MG, 100 mM MOPS pH 7
Molecule,concentration at which crosslinking was complete / a plateau was reached [2],"[Saturating] [2, 5]",pH ([2]; Table 5),pH dependence of crosslinking [2],T1/2 [3] [min],further results
tris(hydroxymethyl)aminomethane,,,,,,pKa [1]: 8.3
"O=C[C@@H](O)[C@H](O)CO [D-Threose, D-threose]",approximately 50 mM,50 mM,,,,
proanthrocyanidin,,0.1%,5-9,relatively insensitive to pH,<5,effect of buffer (EPPS vs Tris) on crosslinking [2]: did not see any difference; effect of phosphate on crosslinking [2]: did not have any substantial
"O=C[C@H](O)[C@@H](O)CO [L-Threose, L-threose]",approximately 50 mM,50 mM,8-9,function better in disc tissue at the higher pH levels,150,max solubility [4]: comparable to MG; effect of buffer (EPPS vs Tris) on crosslinking [2]: did not see any difference
"CCN=C=NCCCN(C)C.Cl [EDC, 1-ethyl-3-[3-dimethylaminopropyl]carbodiimide hydrochloride]",,2.5 to 5 mM,6,required a relatively narrow pH range,,
"CC(=O)C=O [Methylglyoxal, methylglyoxal]",50 mM,,8-9,,14 to 20,"max solubility [4]: about 6 M; enhancement of crosslinking by phosphate ([2]; 100 mM EPPS pH 8, 100 mM potassium phosphate, p=0.1): approximately 3 fold; effect of phosphate on crosslinking [2]: enhance disc tissue crosslinking in a dose-dependent manner; [Saturating] ([2]; at pH 7): 30 to 50 mM; [Saturating] ([2]; at pH 8 (100 mM EPPS buffer), listed as MG): 10 mM; borohydride concentration at which the crosslinking reaction was enhanced [2, 6]: 1 to 5 mM; effect of 10 mM borohydride on crosslinking [2, 6]: inhibitory; borohydride concentration at which enhancement was observed ([2]; sub-saturating MG, EPPS buffer pH 8.0): below 1.5 mM; activity in EPPS when compared to Tris ([2]; sub-saturating MG, pH 8, 100 mM buffer, p<0.0001, n=10): ~2 fold; pH dependence of crosslinking ([2]; listed as MG): function better in disc tissue at the higher pH levels; also recorded: equally efficient at pH 8 and 9; also recorded: marked increase in its crosslinking ability at pH 8 compared to pH 7"
"O=CCCCC=O [Glutaraldehyde, reference compound]",,1 to 2 mM,8-9,,<5,
B1,,,7-8,required a relatively narrow pH range,,"[Saturating] ([2]; 2 hrs incubation, highest concentration tested 2 U/ml): >2 U/ml; [Saturating] ([2]; 2 hrs incubation, highest concentration tested 2 U/ml, listed as TG): > 2 U/ml"
